In patent publication US5723501A, “Pharmaceutical compositions containing 3-IODO-1,2-propanediol having mucolytic activity” (Carter-Wallace, Inc., priority 1996, dated 1998):
Values joined by “and” are separate entries in the source; they are usually repeats but may differ in a detail not shown here. Equal entries are not always repeated. “Also recorded” adds a separate entry of the source.

Columns and labels:
[1] = tested on: tracheal secretion of phenol red in mice; experiment: Tracheal secretion of phenol red in male mice (Engler and Szelenyi method); type: in vivo; details: for Phenol Red Secretion, Treated: 30 min before phenol red i.p., * P<0.05 vs control; for Phenol Red Secretion, Treated / % Change in phenol red secretion: mean ± SFM; for % Change in phenol red secretion: vs control; for effect on tracheal secretion of phenol red, dose dependence / ED50 (dose stimulating tracheal secretion of phenol red by 50% over the control) / ED50: 30 minutes; for ED50 (dose stimulating tracheal secretion of phenol red by 50% over the control) / ED50: male mice; for ED50: Mus musculus, po, 0.5 h, read-out: ED50 (dose stimulating tracheal secretion of phenol red by 50% over the control)
Description: Adult male mice weighing 14-40 g were used in this investigation. Animals were acclimatized to the laboratory environment for a minimum of five days prior to use in the experimental procedures. Housing was provided in environmentally controlled quarters in which temperature, humidity and ventilation were regulated based on the needs of the species. Husbandry practices and veterinary care were in accordance with the Guide for Care and Use of Laboratory Animals (NIH Publication No. 85-23). Tracheal secretion in mice, expressed by the amount of phenol red dye secreted into the lumen of the trachea was measured according to the method of Engler and Szelenyi. Male mice were randomly placed into appropriate treatment groups. On each experiment day, one to four mice in a group received orally either vehicle (distilled water or 1% acacia, 0.1 mL/10 g body weight) or a drug. Each drug was tested at a minimum of three different dose levels. Each drug dosage was tested in at least six animals. Drugs were administered orally (0.1 mL/10 g body weight) 30 minutes prior to intraperitoneal injection of phenol red (500 mg/kg: 5% solution in physiological saline, 0.1 mL/10 g body weight). Thirty minutes after phenol red injection the animals were sacrificed by exposure to CO2. The whole trachea was carefully excised and washed in 1.0 mL physiological saline for a period of 30 minutes. Subsequently, 0.1 mL of 1 M NaOH was added to the tracheal washings to stabilize the pH of the lavage fluid. The amount of phenol red was measured photometrically at […] in a Beckman Model 25 spectrophotometer. The amount of phenol red secreted in the tracheal lumen, expressed in μg/10 g body weight/hr, was determined by the formula of Graziani and Cazzulani: [formula] where: S=phenol red secreted per 10 g of body weight per hour (μg/10 g/hr). s=intensity of emission of the phenol red contained in 1.0 mL of tracheal lavage as determined from the standard curve of phenol red (0.5, 1, 5, and 10 μg/mL). V=volume of the tracheal lavage (1.0 mL). W=body weight of the mice expressed in grams. The results were expressed as mean ±S.F.M. Statistical significance was evaluated using the t-test for independent means, where P<0.05 is considered to be significant as compared to the appropriate control. The % increase in tracheal secretion of phenol red by each dose of a drug was determined by using the following formula: [formula] T=tracheal secretion of phenol red (μg/10 g/hr) in treated mice each day. C=tracheal secretion of phenol red (μg/10 g/hr) in untreated mice each day. The line of best fit was calculated from the dose response curve of each drug and the ED50 (mg/kg), i.e. the dose stimulating tracheal secretion of phenol red by 50% over the control level, was determined and 95% confidence limits were also calculated.

[2] = tested on: tracheal secretion in mice; details: cited from earlier work
[3] = tested on: citric acid (aerosol)-induced coughing responses in guinea pigs; details: cited from earlier work
[4] = tested on: mechanical or electrical stimulation in the cat; details: cited from earlier work

Compound | Phenol Red Secretion, Treated ([1]; oral dose 50.0 mg/kg) | % Change in phenol red secretion ([1]; oral dose 50.0 mg/kg) | Phenol Red Secretion, Treated ([1]; oral dose 100.0 mg/kg) | % Change in phenol red secretion ([1]; oral dose 100.0 mg/kg) | Phenol Red Secretion, Treated ([1]; oral dose 200.0 mg/kg) | % Change in phenol red secretion ([1]; oral dose 200.0 mg/kg) | stimulation of tracheal secretion of phenol red ([1]; oral, mice) | effect on tracheal secretion of phenol red, dose dependence ([1]; p.o., mice) | oral ED50 reported earlier by others [2] | ED50 ([1]; p.o.) | Phenol Red Secretion, Treated ([1]; oral dose 0.3 mg/kg) | % Change in phenol red secretion ([1]; oral dose 0.3 mg/kg) | Phenol Red Secretion, Treated ([1]; oral dose 1.0 mg/kg) | % Change in phenol red secretion ([1]; oral dose 1.0 mg/kg) | Phenol Red Secretion, Treated ([1]; oral dose 10.0 mg/kg) | % Change in phenol red secretion ([1]; oral dose 10.0 mg/kg) | Phenol Red Secretion, Treated ([1]; oral dose 30.0 mg/kg) | % Change in phenol red secretion ([1]; oral dose 30.0 mg/kg) | other results
[I-].[K+] [Potassium Iodide, potassium iodide] | 0.67 ± 0.07 μg/10 g/hr | 5.1 ± 11.2% | 1.47 ± 0.15 μg/10 g/hr | 45.8 ± 14.2% | 0.96 ± 0.10 μg/10 g/hr | 49.1 ± 12.2% | stimulated tracheal secretion of phenol red | dose-dependent increase | ~4000 mg/kg | – | – | – | – | – | – | – | – | – | ED50 (dose stimulating tracheal secretion of phenol red by 50% over the control) ([1]; p.o.): ~ 200 mg/kg; ED50 (dose stimulating tracheal secretion of phenol red by 50% over the control) ([1]; p.o., listed as potassium iodide): ~ 200 mg/kg and 200 mg/kg
CC(C)(C)NCC(O)c1ccc(O)c(CO)c1 (stereo not drawn) [Albuterol] | – | – | – | – | – | – | stimulated tracheal secretion of phenol red | dose-dependent increase | about 4 mg/kg | 0.18 mg/kg | 1.30 ± 0.16 μg/10 g/hr | 78.4 ± 22.9% | 1.60 ± 0.09 μg/10 g/hr | 118.6 ± 11.6% | – | – | – | – | Phenol Red Secretion, Treated ([1]; oral dose 0.1 mg/kg): 0.85 ± 0.08 μg/10 g/hr; % Change in phenol red secretion ([1]; oral dose 0.1 mg/kg): 20.5 ± 10.6%
OCC(O)CI (stereo not drawn) [3-iodo-1,2-propanediol] | – | – | – | – | – | – | stimulates tracheal secretion of phenol red; also recorded: effective in stimulating tracheal secretion of phenol red | dose-dependent increase; also recorded: dose-dependent stimulation | – | 0.75 mg/kg | 1.02 ± 0.06 μg/10 g/hr | 37.5 ± 8.01% | 1.16 ± 0.13 μg/10 g/hr | 56.55 ± 17.83% | 1.32 ± 0.16 μg/10 g/hr | 77.36 ± 21.67% | 1.56 ± 0.23 μg/10 g/hr | 110.45 ± 31.5% | effectiveness relative to iodinated glycerol in stimulating tracheal secretion of phenol red ([1]; oral, mice, times as effective as iodinated glycerol): about 90 times; antitussive effect [3]: antitussive effect; antitussive effect [4]: antitussive effect
CC(=O)N[C@@H](CS)C(=O)O [N-acetylcysteine] | 1.00 ± 0.08 μg/10 g/hr | 51.6 ± 10.6% | – | – | 1.30 ± 0.12 μg/10 g/hr | 75.7 ± 1.5% | – | dose-dependent increase | – | 61.8 mg/kg | – | – | – | – | 0.66 ± 0.06 μg/10 g/hr | 2.3 ± 13.2% | – | – | –
CN(Cc1cc(Br)cc(Br)c1N)C1CCCCC1 [Bromhexine] | – | – | 0.90 ± 0.10 μg/10 g/hr | 40.6 ± 17.0% | – | – | – | weak to moderate nondose-related effect | – | > 100 mg/kg | – | – | – | – | – | – | 0.67 ± 0.10 μg/10 g/hr | 0 ± 0% | significant increase in phenol red tracheal secretion ([1]; 3 or 30 mg/kg, p.o.): not at 3 or 30 mg/kg; increase in phenol red tracheal secretion ([1]; only at 100 mg/kg, p.o.): significant increase; Phenol Red Secretion, Treated ([1]; oral dose 3.0 mg/kg): 1.20 ± 0.13 μg/10 g/hr; % Change in phenol red secretion ([1]; oral dose 3.0 mg/kg): 20.9 ± 12.9%; bronchosecretogogue activity reported by others ([2]; 40 mg/kg, p.o., mice): little or no bronchosecretogogue activity
